In patent US10787462B2, “Heterocyclic compound” (TAKEDA PHARMACEUTICAL COMPANY LIMITED, priority 2015, dated 2020):

biological target: T1, human RIPK1 (1-375) (Homo sapiens, UniProt Q13546); assay: Human RIPK1 enzyme inhibitory effect (ADP-Glo Kinase Assay); format: biochemical; details: 10 μM test compound; well without enzyme = 100% inhibition; 10 µM
T1 construct: human RIPK1 (1-375) gene; GST; made in house; host or cells: Sf-9 insect cells
T1 sequence (Q13546 1-375): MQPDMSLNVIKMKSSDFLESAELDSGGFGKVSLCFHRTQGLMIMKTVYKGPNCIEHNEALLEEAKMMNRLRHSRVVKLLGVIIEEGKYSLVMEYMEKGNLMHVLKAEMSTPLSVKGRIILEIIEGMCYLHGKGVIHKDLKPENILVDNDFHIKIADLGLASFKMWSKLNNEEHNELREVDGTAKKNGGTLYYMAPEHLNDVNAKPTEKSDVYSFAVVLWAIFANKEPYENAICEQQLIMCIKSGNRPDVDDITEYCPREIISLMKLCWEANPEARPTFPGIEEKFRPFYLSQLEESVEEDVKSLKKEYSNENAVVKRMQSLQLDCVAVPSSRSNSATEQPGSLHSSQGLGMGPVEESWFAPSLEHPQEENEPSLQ
Summary of the method: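 Human RIPK1 (1-375), GST-purified from Sf-9 cells, preincubated 20 min at room temperature with compound in 25 mM HEPES pH 7.5, 10 mM MgCl2, 0.01% Tween-20, 2 mM DTT. Reaction started with 0.6 mM ATP solution (stock), run 120 min at room temperature. ADP measured by ADP-Glo luminescence.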

Question: `CN1C(=O)C(N2CCc3c(nn(Cc4ccccc4)c3Cl)C2=O)CCc2cccnc21` (stereo not shown) [Example 91, 7-(2-benzyl-3-chloro-7-oxo-2,4,5,7-tetrahydro-6H-pyrazolo[3,4-c]pyridin-6-yl)-9-methyl-5,6,7,9-tetrahydro-8H-pyrido[2,3-b]azepin-8-one] was tested. Which “human RIPK1 enzyme inhibitory effect at 10 μM (% inhibition)” value did it give?
Answer: Its value is 100%.

Question: For `CN1C(=O)C(N2CCc3c(nn(Cc4ccccc4)c3Cl)C2=O)CCc2cccnc21` (stereo not shown) [Example 93, 7-(2-benzyl-3-chloro-7-oxo-2,4,5,7-tetrahydro-6H-pyrazolo[3,4-c]pyridin-6-yl)-9-methyl-5,6,7,9-tetrahydro-8H-pyrido[2,3-b]azepin-8-one], which “human RIPK1 enzyme inhibitory effect at 10 μM (% inhibition)” value is on record?
Answer: Its value is 69%.

Question: For `CN1C(=O)C(N2CCc3c(nn(Cc4ccccc4)c3Cl)C2=O)CCc2cccnc21` (stereo not shown) [Example 94, 7-(2-benzyl-3-chloro-7-oxo-2,4,5,7-tetrahydro-6H-pyrazolo[3,4-c]pyridin-6-yl)-9-methyl-5,6,7,9-tetrahydro-8H-pyrido[2,3-b]azepin-8-one], which “human RIPK1 enzyme inhibitory effect at 10 μM (% inhibition)” value is on record?
Answer: The value was 101%.

Question: `CN1C(=O)C(N2CCc3c(nn(Cc4ccccc4)c3Cl)C2=O)CCc2ccncc21` (stereo not shown) [Example 95, 3-(2-benzyl-3-chloro-7-oxo-2,4,5,7-tetrahydro-6H-pyrazolo[3,4-c]pyridin-6-yl)-1-methyl-1,3,4,5-tetrahydro-2H-pyrido[3,4-b]azepin-2-one] was tested. Which “human RIPK1 enzyme inhibitory effect at 10 μM (% inhibition)” value did it give?
Answer: The value was 101%.

Question: How did the “human RIPK1 enzyme inhibitory effect at 10 μM (% inhibition)” value turn out when `CN1C(=O)C(N2CCc3c(nn(Cc4ccccc4F)c3Cl)C2=O)CCc2cnccc21` (stereo not shown) [Example 96, 3-(3-chloro-2-(2-fluorobenzyl)-7-oxo-2,4,5,7-tetrahydro-6H-pyrazolo[3,4-c]pyridin-6-yl)-1-methyl-1,3,4,5-tetrahydro-2H-pyrido[4,3-b]azepin-2-one] was run?
Answer: The value was 96%.

Question: How did the “human RIPK1 enzyme inhibitory effect at 10 μM (% inhibition)” value turn out when `CN1C(=O)C(N2CCc3c(nn(Cc4ccccc4F)c3Cl)C2=O)CCc2ccncc21` (stereo not shown) [Example 97, 3-(3-chloro-2-(2-fluorobenzyl)-7-oxo-2,4,5,7-tetrahydro-6H-pyrazolo[3,4-c]pyridin-6-yl)-1-methyl-1,3,4,5-tetrahydro-2H-pyrido[3,4-b]azepin-2-one] was run?
Answer: The value was 98%.

Question: For `CN1C(=O)C(N2CCc3c(nn(Cc4ccccc4)c3Cl)C2=O)CCc2cnccc21` (stereo not shown) [Example 99, 3-(2-benzyl-3-chloro-7-oxo-2,4,5,7-tetrahydro-6H-pyrazolo[3,4-c]pyridin-6-yl)-1-methyl-1,3,4,5-tetrahydro-2H-pyrido[4,3-b]azepin-2-one], which “human RIPK1 enzyme inhibitory effect at 10 μM (% inhibition)” value is on record?
Answer: Its value is 98%.

Question: With `CN1C(=O)C(N2CCc3c(nn(Cc4ccccc4)c3Cl)C2=O)CCc2cnccc21` (stereo not shown) [Example 100, 3-(2-benzyl-3-chloro-7-oxo-2,4,5,7-tetrahydro-6H-pyrazolo[3,4-c]pyridin-6-yl)-1-methyl-1,3,4,5-tetrahydro-2H-pyrido[4,3-b]azepin-2-one] as the molecule, how does the “human RIPK1 enzyme inhibitory effect at 10 μM (% inhibition)” value read?
Answer: The value was 91%.

Question: With `CN1C(=O)C(N2CCc3c(nn(Cc4ccccc4)c3Cl)C2=O)CCc2ccncc21` (stereo not shown) [Example 102, 3-(2-benzyl-3-chloro-7-oxo-2,4,5,7-tetrahydro-6H-pyrazolo[3,4-c]pyridin-6-yl)-1-methyl-1,3,4,5-tetrahydro-2H-pyrido[3,4-b]azepin-2-one] as the molecule, how does the “human RIPK1 enzyme inhibitory effect at 10 μM (% inhibition)” value read?
Answer: Its value is 88%.

Question: `CN1C(=O)C(N2CCc3c(nn(Cc4ccccc4F)c3Cl)C2=O)CCc2ccncc21` (stereo not shown) [Example 104, 3-(3-chloro-2-(2-fluorobenzyl)-7-oxo-2,4,5,7-tetrahydro-6H-pyrazolo[3,4-c]pyridin-6-yl)-1-methyl-1,3,4,5-tetrahydro-2H-pyrido[3,4-b]azepin-2-one] was tested. Which “human RIPK1 enzyme inhibitory effect at 10 μM (% inhibition)” value did it give?
Answer: The value was 95%.

Question: With `CN1C(=O)C(N2CCc3c(nn(Cc4ccccc4F)c3Cl)C2=O)CCc2cnccc21` (stereo not shown) [Example 106, 3-(3-chloro-2-(2-fluorobenzyl)-7-oxo-2,4,5,7-tetrahydro-6H-pyrazolo[3,4-c]pyridin-6-yl)-1-methyl-1,3,4,5-tetrahydro-2H-pyrido[4,3-b]azepin-2-one] as the molecule, how does the “human RIPK1 enzyme inhibitory effect at 10 μM (% inhibition)” value read?
Answer: Its value is 95%.

Question: How did the “human RIPK1 enzyme inhibitory effect at 10 μM (% inhibition)” value turn out when `CN1C(=O)C(N2CCc3c(nn(Cc4ccccc4)c3Cl)C2=O)CCc2cn(C)nc21` (stereo not shown) [Example 111, 6-(2-benzyl-3-chloro-7-oxo-2,4,5,7-tetrahydro-6H-pyrazolo[3,4-c]pyridin-6-yl)-2,8-dimethyl-2,5,6,8-tetrahydropyrazolo[3,4-b]azepin-7(4H)-one] was run?
Answer: Its value is 99%.

Question: Which “human RIPK1 enzyme inhibitory effect at 10 μM (% inhibition)” value does the source give for `CN1C(=O)C(N2CCc3c(nn(Cc4ccccc4)c3Cl)C2=O)CCc2cn(C)nc21` (stereo not shown) [Example 113, 6-(2-benzyl-3-chloro-7-oxo-2,4,5,7-tetrahydro-6H-pyrazolo[3,4-c]pyridin-6-yl)-2,8-dimethyl-2,5,6,8-tetrahydropyrazolo[3,4-b]azepin-7(4H)-one] here?
Answer: Its value is 61%.

Question: For `CN1C(=O)C(N2CCc3c(nn(Cc4ccccc4)c3Cl)C2=O)CCc2cn(C)nc21` (stereo not shown) [Example 114, 6-(2-benzyl-3-chloro-7-oxo-2,4,5,7-tetrahydro-6H-pyrazolo[3,4-c]pyridin-6-yl)-2,8-dimethyl-2,5,6,8-tetrahydropyrazolo[3,4-b]azepin-7(4H)-one], which “human RIPK1 enzyme inhibitory effect at 10 μM (% inhibition)” value is on record?
Answer: The value was 101%.

same assay, conditions: read-out: human RIPK1 enzyme inhibitory effect at 10 μM (% inhibition), 10 μM test compound; well without enzyme = 100% inhibition

Question: For `CN(C)C(=O)c1ccc2c(c1)N(C)C(=O)[C@@H](N1CCc3c(nn(Cc4ccccc4)c3Cl)C1=O)CO2` [Example 90, (3S)-3-(2-benzyl-3-chloro-7-oxo-2,4,5,7-tetrahydro-6H-pyrazolo[3,4-c]pyridin-6-yl)-N,N,5-trimethyl-4-oxo-2,3,4,5-tetrahydro-1,5-benzoxazepine-7-carboxamide], which inhibition at 10 µM is on record?
Answer: The inhibition at 10 µM was 101%.

Question: With `CN1C(=O)C(N2CCc3c(nn(Cc4ccccc4)c3Cl)C2=O)CCc2nn(C)cc21` (stereo not shown) [Example 92, 6-(2-benzyl-3-chloro-7-oxo-2,4,5,7-tetrahydro-6H-pyrazolo[3,4-c]pyridin-6-yl)-2,4-dimethyl-2,6,7,8-tetrahydropyrazolo[4,3-b]azepin-5(4H)-one] as the molecule, how does the inhibition at 10 µM read?
Answer: The inhibition at 10 µM was 98%.

Question: Which inhibition at 10 µM does the source give for `CN1C(=O)C(N2CCc3c(nn(Cc4ccccc4)c3Cl)C2=O)CCc2cnccc21` (stereo not shown) [Example 98, 3-(2-benzyl-3-chloro-7-oxo-2,4,5,7-tetrahydro-6H-pyrazolo[3,4-c]pyridin-6-yl)-1-methyl-1,3,4,5-tetrahydro-2H-pyrido[4,3-b]azepin-2-one] here?
Answer: Its inhibition at 10 µM is 98%.

Question: For `CN1C(=O)C(N2CCc3c(nn(Cc4ccccc4)c3Cl)C2=O)CCc2ccncc21` (stereo not shown) [Example 101, 3-(2-benzyl-3-chloro-7-oxo-2,4,5,7-tetrahydro-6H-pyrazolo[3,4-c]pyridin-6-yl)-1-methyl-1,3,4,5-tetrahydro-2H-pyrido[3,4-b]azepin-2-one], which inhibition at 10 µM is on record?
Answer: The inhibition at 10 µM was 97%.

Question: For `CN1C(=O)C(N2CCc3c(nn(Cc4ccccc4F)c3Cl)C2=O)CCc2ccncc21` (stereo not shown) [Example 103, 3-(3-chloro-2-(2-fluorobenzyl)-7-oxo-2,4,5,7-tetrahydro-6H-pyrazolo[3,4-c]pyridin-6-yl)-1-methyl-1,3,4,5-tetrahydro-2H-pyrido[3,4-b]azepin-2-one], which inhibition at 10 µM is on record?
Answer: Its inhibition at 10 µM is 99%.

Question: How did the inhibition at 10 µM turn out when `CN1C(=O)C(N2CCc3c(nn(Cc4ccccc4F)c3Cl)C2=O)CCc2cnccc21` (stereo not shown) [Example 105, 3-(3-chloro-2-(2-fluorobenzyl)-7-oxo-2,4,5,7-tetrahydro-6H-pyrazolo[3,4-c]pyridin-6-yl)-1-methyl-1,3,4,5-tetrahydro-2H-pyrido[4,3-b]azepin-2-one] was run?
Answer: Its inhibition at 10 µM is 99%.

Question: With `CN1C(=O)[C@@H](N2CCc3c(nn(Cc4ccccc4)c3Cl)C2=O)COc2cc(-c3cnn(C)c3)ccc21` [Example 107, (3S)-3-(2-benzyl-3-chloro-7-oxo-2,4,5,7-tetrahydro-6H-pyrazolo[3,4-c]pyridin-6-yl)-5-methyl-8-(1-methyl-1H-pyrazol-4-yl)-2,3-dihydro-1,5-benzoxazepin-4(5H)-one] as the molecule, how does the inhibition at 10 µM read?
Answer: The inhibition at 10 µM was 100%.

Question: For `CN1C(=O)[C@@H](N2CCc3c(nn(Cc4ccccc4)c3Cl)C2=O)COc2cc(-c3ccn(C)n3)ccc21` [Example 108, (3S)-3-(2-benzyl-3-chloro-7-oxo-2,4,5,7-tetrahydro-6H-pyrazolo[3,4-c]pyridin-6-yl)-5-methyl-8-(1-methyl-1H-pyrazol-3-yl)-2,3-dihydro-1,5-benzoxazepin-4(5H)-one], which inhibition at 10 µM is on record?
Answer: Its inhibition at 10 µM is 100%.

Question: `Cc1c2c(nn1Cc1ccccc1F)C(=O)N([C@H]1COc3cc(Br)ccc3N(C)C1=O)CC2` [Example 109, (3S)-8-bromo-3-(2-(2-fluorobenzyl)-3-methyl-7-oxo-2,4,5,7-tetrahydro-6H-pyrazolo[3,4-c]pyridin-6-yl)-5-methyl-2,3-dihydro-1,5-benzoxazepin-4(5H)-one] was tested. Which inhibition at 10 µM did it give?
Answer: Its inhibition at 10 µM is 100%.

Question: For `CN1C(=O)[C@@H](N2CCc3cn(Cc4c(F)cccc4F)nc3C2=O)COc2cc(Br)ccc21` [Example 110, (3S)-8-bromo-3-(2-(2,6-difluorobenzyl)-7-oxo-2,4,5,7-tetrahydro-6H-pyrazolo[3,4-c]pyridin-6-yl)-5-methyl-2,3-dihydro-1,5-benzoxazepin-4(5H)-one], which inhibition at 10 µM is on record?
Answer: Its inhibition at 10 µM is 100%.

Question: `Cc1c2c(nn1Cc1ccccc1F)C(=O)N([C@H]1COc3cc(C#N)ccc3N(C)C1=O)CC2` [Example 112, (3S)-3-(2-(2-fluorobenzyl)-3-methyl-7-oxo-2,4,5,7-tetrahydro-6H-pyrazolo[3,4-c]pyridin-6-yl)-5-methyl-4-oxo-2,3,4,5-tetrahydro-1,5-benzoxazepine-8-carbonitrile] was tested. Which inhibition at 10 µM did it give?
Answer: Its inhibition at 10 µM is 100%.
